Experimental data published in ChEMBL document CHEMBL4138244, “Structure-based identification of a NEDD8-activating enzyme inhibitor via drug repurposing” (Eur J Med Chem, 2018).
Active and inactive are the calls of the source. The calls are words filed in the database; no cut-off is given here.

How the values were obtained:
[1] = target: T1, NEDD8 activating enzyme (Homo sapiens) (UniProt Q8TBC4+Q13564); experiment: Inhibition of NAE-mediated Ubcl2-NEDD8 conjugation in human Caco2 cells at 10 uM after 16 hrs by Western blot analysis; assay type: cell-based
[2] = target: T1, NEDD8 activating enzyme (Homo sapiens); experiment: (§1) Inhibition of NAE-mediated Ubcl2-NEDD8 conjugation in human Caco2 cells after 16 hrs by Western blot analysis; assay type: cell-based
NEDD8 activating enzyme = target: T2, NEDD8 activating enzyme (Homo sapiens, UniProt Q8TBC4); experiment: as §1; assay type: cell-based
T2 sequence (Q8TBC4 whole entry): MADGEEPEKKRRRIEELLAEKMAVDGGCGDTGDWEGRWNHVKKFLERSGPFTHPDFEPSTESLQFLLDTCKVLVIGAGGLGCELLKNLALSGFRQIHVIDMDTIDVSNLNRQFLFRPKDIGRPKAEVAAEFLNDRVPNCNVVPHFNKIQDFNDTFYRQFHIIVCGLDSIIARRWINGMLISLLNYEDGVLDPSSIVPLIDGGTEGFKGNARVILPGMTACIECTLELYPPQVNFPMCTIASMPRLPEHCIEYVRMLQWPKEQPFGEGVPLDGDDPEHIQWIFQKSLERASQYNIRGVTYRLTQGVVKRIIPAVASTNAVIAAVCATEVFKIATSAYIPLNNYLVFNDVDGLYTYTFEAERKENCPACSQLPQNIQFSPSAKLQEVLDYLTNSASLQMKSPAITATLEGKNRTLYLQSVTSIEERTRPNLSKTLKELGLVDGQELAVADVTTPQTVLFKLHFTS
T2 sequence (Q13564 whole entry): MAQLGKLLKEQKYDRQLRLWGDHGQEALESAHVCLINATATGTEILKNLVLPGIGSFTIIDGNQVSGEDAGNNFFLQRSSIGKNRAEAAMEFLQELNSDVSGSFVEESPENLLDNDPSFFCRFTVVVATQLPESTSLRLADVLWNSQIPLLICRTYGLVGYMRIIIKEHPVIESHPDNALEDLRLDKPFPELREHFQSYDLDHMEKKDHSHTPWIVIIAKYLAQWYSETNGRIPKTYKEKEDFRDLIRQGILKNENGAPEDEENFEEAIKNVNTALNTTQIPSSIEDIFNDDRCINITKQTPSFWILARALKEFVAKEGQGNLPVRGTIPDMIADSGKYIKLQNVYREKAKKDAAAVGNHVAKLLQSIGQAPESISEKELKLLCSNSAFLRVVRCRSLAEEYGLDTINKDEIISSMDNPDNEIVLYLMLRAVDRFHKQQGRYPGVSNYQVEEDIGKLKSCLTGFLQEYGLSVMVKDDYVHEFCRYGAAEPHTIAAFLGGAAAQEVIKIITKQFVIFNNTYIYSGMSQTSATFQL

[3] = target: T1, NEDD8 activating enzyme (Homo sapiens); experiment: Inhibition of NAE (unknown origin) assessed as decrease in NAE-mediated Ubc12-NEDD8 conjugation levels preincubated for 10 mins followed by ATP and Mg2+ addition measured after 60 mins by Western blot analysis; assay type: protein-complex assay
[4] = target: T3, SUMO-activating enzyme (Homo sapiens) (UniProt Q9UBE0+Q9UBT2); experiment: Inhibition of SAE (unknown origin) assessed as decrease in SAE-mediated Ubc9-SUMO conjugation levels up to 10 uM preincubated for 10 mins followed by ATP and Mg2+ addition measured after 60 mins by Western blot analysis; assay type: protein-complex assay
[5] = target: T4, Ubiquitin-like modifier-activating enzyme 1 (Homo sapiens) (UniProt P22314); experiment: Inhibition of UAE1 (unknown origin) assessed as decrease in UAE1-mediated Ubc10-ubiquitin conjugation levels up to 10 uM preincubated for 10 mins followed by ATP and Mg2+ addition measured after 60 mins by Western blot analysis
T4 sequence (whole entry): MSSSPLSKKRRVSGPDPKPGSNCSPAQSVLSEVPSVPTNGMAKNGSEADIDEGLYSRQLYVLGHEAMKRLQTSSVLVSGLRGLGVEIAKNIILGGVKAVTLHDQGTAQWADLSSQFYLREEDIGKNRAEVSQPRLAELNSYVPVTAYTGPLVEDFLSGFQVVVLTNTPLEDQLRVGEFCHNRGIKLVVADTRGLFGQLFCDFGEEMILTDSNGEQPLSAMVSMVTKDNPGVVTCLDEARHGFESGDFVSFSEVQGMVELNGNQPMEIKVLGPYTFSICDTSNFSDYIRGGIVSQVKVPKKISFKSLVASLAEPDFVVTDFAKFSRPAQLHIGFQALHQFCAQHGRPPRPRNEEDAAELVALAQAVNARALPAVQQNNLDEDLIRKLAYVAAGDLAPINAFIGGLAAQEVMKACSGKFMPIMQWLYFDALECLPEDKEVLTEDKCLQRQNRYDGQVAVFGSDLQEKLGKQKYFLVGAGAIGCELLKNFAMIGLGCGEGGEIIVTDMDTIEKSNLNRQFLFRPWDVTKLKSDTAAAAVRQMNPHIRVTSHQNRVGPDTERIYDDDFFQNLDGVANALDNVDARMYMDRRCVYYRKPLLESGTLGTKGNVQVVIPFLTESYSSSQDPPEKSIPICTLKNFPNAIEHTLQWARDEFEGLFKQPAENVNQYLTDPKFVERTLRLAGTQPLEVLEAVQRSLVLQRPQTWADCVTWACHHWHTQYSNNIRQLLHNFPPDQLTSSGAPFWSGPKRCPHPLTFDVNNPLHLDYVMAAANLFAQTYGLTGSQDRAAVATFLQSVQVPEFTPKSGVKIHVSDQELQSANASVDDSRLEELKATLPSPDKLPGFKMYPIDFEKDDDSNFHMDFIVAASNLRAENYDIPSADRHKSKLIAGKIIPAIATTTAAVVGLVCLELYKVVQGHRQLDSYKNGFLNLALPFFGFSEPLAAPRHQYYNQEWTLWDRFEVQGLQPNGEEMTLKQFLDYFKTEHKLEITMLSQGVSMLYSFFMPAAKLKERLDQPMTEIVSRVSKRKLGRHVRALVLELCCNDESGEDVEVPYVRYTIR

[6] = target: T1, NEDD8 activating enzyme (Homo sapiens); experiment: Competitive inhibition of NAE (unknown origin) assessed as decrease in NAE-mediated Ubc12-NEDD8 conjugation levels at 10 uM preincubated for 10 mins followed by Mg2+ and various concentrations of ATP addition measured after 60 mins by Lineweaver-Burk plot analysis; assay type: protein-complex assay
[7] = target: T1, NEDD8 activating enzyme (Homo sapiens); experiment: Inhibition of NAE (unknown origin) assessed as decrease in NAE-mediated Ubc12-NEDD8 conjugation levels at 10 uM treated for 10 mins post ATP and Mg2+ addition measured after 60 mins by Western blot analysis; assay type: protein-complex assay
[8] = target: T1, NEDD8 activating enzyme (Homo sapiens); experiment: Inhibition of NAE in human Caco2 cells assessed as increase in p53 protein levels at 0.1 to 10 uM after 16 hrs by Western blot analysis; assay type: cell-based
Caco-2 [9] = experiment: Upregulation of p53 protein levels in NAE knockdown human Caco2 cells at 10 uM after 16 hrs by Western blot analysis; assay type: functional, cell-based
[10] = target: T1, NEDD8 activating enzyme (Homo sapiens); experiment: Inhibition of NAE in human Caco2 cells assessed as increase in p53 protein levels at 1 to 10 uM after 16 hrs by Western blot analysis; assay type: cell-based
[11] = target: T1, NEDD8 activating enzyme (Homo sapiens); experiment: Inhibition of NAE in human Caco2 cells assessed as increase in p53 protein levels by measuring p53 degradation at 10 uM preincubated for 16 hrs followed by cycloheximide addition measured up to 60 mins by Western blot analysis relative to control; assay type: cell-based; set-up: scale not given: the % may be the effect or the level left
[12] = target: T1, NEDD8 activating enzyme (Homo sapiens); experiment: Inhibition of NAE in human Caco2 cells harboring p53-luc plasmid assessed as increase in p53 transcriptional activity after 16 hrs by luciferase reporter gene assay; assay type: cell-based
[13] = target: T1, NEDD8 activating enzyme (Homo sapiens); experiment: Inhibition of NAE in human Caco2 cells assessed as increase in beta-catenin protein levels after 16 hrs by Western blot analysis; assay type: cell-based
[14] = target: T1, NEDD8 activating enzyme (Homo sapiens); experiment: Inhibition of NAE in human Caco2 cells assessed as increase in c-myc protein levels after 16 hrs by Western blot analysis; assay type: cell-based
[15] = target: T1, NEDD8 activating enzyme (Homo sapiens); experiment: Inhibition of NAE in human Caco2 cells assessed as increase in p27 protein levels at 0.1 to 10 uM after 16 hrs by Western blot analysis; assay type: cell-based
[16] = target: T1, NEDD8 activating enzyme (Homo sapiens); experiment: Inhibition of NAE in human Caco2 cells assessed as decrease in cyclin D1 protein levels at 0.1 to 10 uM after 16 hrs by Western blot analysis; assay type: cell-based
[17] = target: T1, NEDD8 activating enzyme (Homo sapiens); experiment: Inhibition of NAE in human Caco2 cells assessed as decrease in Bcl2 protein levels at 0.1 to 10 uM after 16 hrs by Western blot analysis; assay type: cell-based
[18] = target: T1, NEDD8 activating enzyme (Homo sapiens); experiment: Inhibition of NAE in human Caco2 cells assessed as increase in phosphorylated NF-kappaB protein levels at 0.1 to 10 uM after 16 hrs by Western blot analysis; assay type: cell-based
Caco-2 [19] = experiment: Induction of apoptosis in human Caco2 cells assessed as viable cells at 1 uM after 16 hrs by Annexin V-FITC/propidium iodide staining-based flow cytometric analysis (reference value: 98.4%); assay type: functional; settings: Caco-2, 16 h, read-out: Activity
Caco-2 [20] = experiment: Induction of apoptosis in human Caco2 cells assessed as early apoptotic cells at 1 uM after 16 hrs by Annexin V-FITC/propidium iodide staining-based flow cytometric analysis (reference value: 1.40%); assay type: functional
Caco-2 [21] = experiment: Induction of apoptosis in human Caco2 cells assessed as late apoptotic cells at 1 uM after 16 hrs by Annexin V-FITC/propidium iodide staining-based flow cytometric analysis (reference value: 0.072%); assay type: functional
Caco-2 [22] = experiment: Induction of apoptosis in human Caco2 cells assessed as necrotic cells at 1 uM after 16 hrs by Annexin V-FITC/propidium iodide staining-based flow cytometric analysis (reference value: 0.12%); assay type: functional
Caco-2 [23] = experiment: Induction of apoptosis in human Caco2 cells assessed as viable cells at 5 uM after 16 hrs by Annexin V-FITC/propidium iodide staining-based flow cytometric analysis (reference value: 98.4%); assay type: functional; settings: Caco-2, 16 h, read-out: Activity
Caco-2 [24] = experiment: Induction of apoptosis in human Caco2 cells assessed as early apoptotic cells at 5 uM after 16 hrs by Annexin V-FITC/propidium iodide staining-based flow cytometric analysis (reference value: 1.40%); assay type: functional
Caco-2 [25] = experiment: Induction of apoptosis in human Caco2 cells assessed as late apoptotic cells at 5 uM after 16 hrs by Annexin V-FITC/propidium iodide staining-based flow cytometric analysis (reference value: 0.072%); assay type: functional
Caco-2 [26] = experiment: Induction of apoptosis in human Caco2 cells assessed as necrotic cells at 5 uM after 16 hrs by Annexin V-FITC/propidium iodide staining-based flow cytometric analysis (reference value: 0.12%); assay type: functional
Caco-2 [27] = experiment: Induction of apoptosis in human Caco2 cells assessed as viable cells at 10 uM after 16 hrs by Annexin V-FITC/propidium iodide staining-based flow cytometric analysis (reference value: 98.4%); assay type: functional; settings: Caco-2, 16 h, read-out: Activity
Caco-2 [28] = experiment: Induction of apoptosis in human Caco2 cells assessed as early apoptotic cells at 10 uM after 16 hrs by Annexin V-FITC/propidium iodide staining-based flow cytometric analysis (reference value: 1.40%); assay type: functional
Caco-2 [29] = experiment: Induction of apoptosis in human Caco2 cells assessed as late apoptotic cells at 10 uM after 16 hrs by Annexin V-FITC/propidium iodide staining-based flow cytometric analysis (reference value: 0.072%); assay type: functional
Caco-2 [30] = experiment: Induction of apoptosis in human Caco2 cells assessed as necrotic cells at 10 uM after 16 hrs by Annexin V-FITC/propidium iodide staining-based flow cytometric analysis (reference value: 0.12%); assay type: functional
Caco-2 [31] = experiment: Cytotoxicity against human Caco2 cells after 72 hrs by MTT assay; assay type: functional, cell-based; settings: Caco-2, 72 h
Caco-2 [32] = experiment: Cytotoxicity against NAE-knockdown human Caco2 cells after 72 hrs by MTT assay; assay type: cell-based; settings: Caco-2, 72 h
[33] = target: T3, SUMO-activating enzyme (Homo sapiens); experiment: Inhibition of SAE-mediated Ubc9-SUMO conjugation in human Caco2 cells up to 10 uM preincubated for 10 mins followed by ATP and Mg2+ addition measured after 60 mins by Western blot analysis; assay type: cell-based
[34] = target: T4, Ubiquitin-like modifier-activating enzyme 1 (Homo sapiens); experiment: Inhibition of UAE1-mediated Ubc10-ubiquitin conjugation in human Caco2 cells up to 10 uM preincubated for 10 mins followed by ATP and Mg2+ addition measured after 60 mins by Western blot analysis; assay type: cell-based

O=C1c2c(O)ccc(O)c2C(=O)c2c(NCCNCCO)ccc(NCCNCCO)c21 [MITOXANTRONE]
inhibition [1]: Active
inhibition [2]: Dose-dependent effect
EC50 (NEDD8 activating enzyme): 1300 nM
inhibition [3]: Dose-dependent effect
inhibition [4]: inactive
inhibition [5]: inactive
inhibition [6]: Active
inhibition [7]: inactive
inhibition [8]: Active
Activity (Caco-2 [9]): Active
inhibition [10]: Active
Activity [11]: 15%
inhibition [12]: Dose-dependent effect
inhibition [13]: Dose-dependent effect
inhibition [14]: Dose-dependent effect
inhibition [15]: Active
inhibition [16]: Active
inhibition [17]: Active
inhibition [18]: Active
viability at 1 µM (Caco-2 [19]): 36%
Activity (Caco-2 [20]): 42%
Activity (Caco-2 [21]): 19.4%
Activity (Caco-2 [22]): 2.49%
viability at 5 µM (Caco-2 [23]): 15.4%
Activity (Caco-2 [24]): 27.8%
Activity (Caco-2 [25]): 50.7%
Activity (Caco-2 [26]): 6.07%
viability at 10 µM (Caco-2 [27]): 3.34%
Activity (Caco-2 [28]): 0.91%
Activity (Caco-2 [29]): 22.1%
Activity (Caco-2 [30]): 73.6%
IC50 (Caco-2 [31]): 1400 nM
IC50 (Caco-2 [32]): > 10000 nM
inhibition [33]: inactive
inhibition [34]: inactive

COc1cc([C@@H]2c3cc4c(cc3[C@H](O)[C@H]3COC(=O)[C@H]23)OCO4)cc(OC)c1OC
inhibition [10]: Active

NS(=O)(=O)OC[C@@H]1C[C@@H](n2ccc3c(N[C@H]4CCc5ccccc54)ncnc32)C[C@@H]1O [PEVONEDISTAT]
inhibition [2]: Dose-dependent effect
inhibition [6]: Active
viability at 10 µM (Caco-2 [27]): 46.6%
Activity (Caco-2 [28]): 32.8%
Activity (Caco-2 [29]): 14.3%
Activity (Caco-2 [30]): 6.27%
IC50 (Caco-2 [31]): 4400 nM
